Consider 23 molecules from patent US20250320189A1, “NEW DERIVATIVES FOR TREATING TRPM3 MEDIATED DISORDERS” (Katholieke Universiteit Leuven, priority 2022, published 2025).

For one assay, the system named is rat pain model. The settings on record: cited from earlier work.
The target of the next assay is TRPM3 (Homo sapiens, UniProt Q9HCF6). The conditions noted are these: cited from earlier work.
In assay [1] the test system is wild type mice / knock-out TRPM3 mice. The conditions noted are these: wild type mice vs knock-out TRPM3 mice; cited from earlier work.
Assay [2] concerns the target T1, mouse TRPM3α2 (mTRPM3) ion channel (Mus musculus, UniProt J9SQF3).
T1 construct: expressed in transfected cells; host or cells: flip-in (Flp-In) HEK293
As to the kind of experiment: Monitoring the TRPM3 ion channel driven Ca2+ uptake (Fluo-4 AM assay). The class given is cell-based. The conditions noted are these: mTRPM3alpha2 overexpressing flip-in HEK293 cells, stimulated with Pregnenolone sulfate (PS) 50 μM. The gist of the method:
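Flp-In HEK293 cells overexpressing mTRPM3α2 were loaded with Fluo-4 AM and added to plates holding compound plus 50 μM pregnenolone sulfate in Ca²⁺-containing Krebs buffer. Fluorescence (ex 485/em 535) was read right after cell addition. Inhibition was calculated against vehicle-stimulated and positive-control-inhibitor wells, with IC50 derived from it.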

T1 sequence (J9SQF3 1-1709 isoform J9SQF3-12): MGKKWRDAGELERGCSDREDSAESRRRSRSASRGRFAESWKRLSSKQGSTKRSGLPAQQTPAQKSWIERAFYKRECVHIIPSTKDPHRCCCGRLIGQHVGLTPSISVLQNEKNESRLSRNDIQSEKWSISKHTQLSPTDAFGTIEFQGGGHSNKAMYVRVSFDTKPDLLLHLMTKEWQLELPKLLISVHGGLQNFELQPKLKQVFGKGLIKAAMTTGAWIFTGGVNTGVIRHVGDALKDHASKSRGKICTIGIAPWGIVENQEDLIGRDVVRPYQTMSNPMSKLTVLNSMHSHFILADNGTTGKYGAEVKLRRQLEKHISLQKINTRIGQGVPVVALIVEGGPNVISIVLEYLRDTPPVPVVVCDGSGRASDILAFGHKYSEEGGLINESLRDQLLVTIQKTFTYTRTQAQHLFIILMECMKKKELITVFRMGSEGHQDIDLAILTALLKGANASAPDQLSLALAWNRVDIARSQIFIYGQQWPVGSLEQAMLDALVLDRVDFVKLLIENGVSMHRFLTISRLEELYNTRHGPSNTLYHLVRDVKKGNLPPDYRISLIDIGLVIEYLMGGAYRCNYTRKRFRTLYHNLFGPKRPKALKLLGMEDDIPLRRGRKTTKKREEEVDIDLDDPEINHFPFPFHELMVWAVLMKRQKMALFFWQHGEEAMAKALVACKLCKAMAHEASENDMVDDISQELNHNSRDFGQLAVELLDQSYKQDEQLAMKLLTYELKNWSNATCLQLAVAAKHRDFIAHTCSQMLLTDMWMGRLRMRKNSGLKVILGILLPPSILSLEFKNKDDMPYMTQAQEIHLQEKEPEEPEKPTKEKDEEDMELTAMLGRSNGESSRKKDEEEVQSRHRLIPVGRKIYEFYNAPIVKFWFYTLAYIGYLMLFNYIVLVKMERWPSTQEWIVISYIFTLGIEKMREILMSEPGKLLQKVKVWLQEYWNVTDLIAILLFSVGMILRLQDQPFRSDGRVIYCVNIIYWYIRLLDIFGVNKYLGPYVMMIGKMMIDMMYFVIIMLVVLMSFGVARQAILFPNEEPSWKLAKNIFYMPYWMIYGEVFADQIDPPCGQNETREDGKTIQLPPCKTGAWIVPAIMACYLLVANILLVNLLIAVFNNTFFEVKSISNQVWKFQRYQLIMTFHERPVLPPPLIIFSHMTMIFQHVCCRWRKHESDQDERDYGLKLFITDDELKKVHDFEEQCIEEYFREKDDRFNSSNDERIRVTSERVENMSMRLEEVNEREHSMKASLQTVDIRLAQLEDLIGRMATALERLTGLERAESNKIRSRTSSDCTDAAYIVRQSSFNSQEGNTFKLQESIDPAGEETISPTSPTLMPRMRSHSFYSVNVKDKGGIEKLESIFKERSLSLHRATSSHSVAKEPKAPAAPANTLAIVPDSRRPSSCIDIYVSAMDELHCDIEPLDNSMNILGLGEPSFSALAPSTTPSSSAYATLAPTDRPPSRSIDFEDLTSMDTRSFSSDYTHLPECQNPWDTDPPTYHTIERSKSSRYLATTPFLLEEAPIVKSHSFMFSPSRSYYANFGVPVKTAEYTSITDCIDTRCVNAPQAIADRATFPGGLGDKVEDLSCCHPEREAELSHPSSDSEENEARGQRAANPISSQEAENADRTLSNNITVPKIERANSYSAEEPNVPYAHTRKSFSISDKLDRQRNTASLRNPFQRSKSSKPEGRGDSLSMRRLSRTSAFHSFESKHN
TRPM3, sequence (Q9HCF6 whole entry, species assumed): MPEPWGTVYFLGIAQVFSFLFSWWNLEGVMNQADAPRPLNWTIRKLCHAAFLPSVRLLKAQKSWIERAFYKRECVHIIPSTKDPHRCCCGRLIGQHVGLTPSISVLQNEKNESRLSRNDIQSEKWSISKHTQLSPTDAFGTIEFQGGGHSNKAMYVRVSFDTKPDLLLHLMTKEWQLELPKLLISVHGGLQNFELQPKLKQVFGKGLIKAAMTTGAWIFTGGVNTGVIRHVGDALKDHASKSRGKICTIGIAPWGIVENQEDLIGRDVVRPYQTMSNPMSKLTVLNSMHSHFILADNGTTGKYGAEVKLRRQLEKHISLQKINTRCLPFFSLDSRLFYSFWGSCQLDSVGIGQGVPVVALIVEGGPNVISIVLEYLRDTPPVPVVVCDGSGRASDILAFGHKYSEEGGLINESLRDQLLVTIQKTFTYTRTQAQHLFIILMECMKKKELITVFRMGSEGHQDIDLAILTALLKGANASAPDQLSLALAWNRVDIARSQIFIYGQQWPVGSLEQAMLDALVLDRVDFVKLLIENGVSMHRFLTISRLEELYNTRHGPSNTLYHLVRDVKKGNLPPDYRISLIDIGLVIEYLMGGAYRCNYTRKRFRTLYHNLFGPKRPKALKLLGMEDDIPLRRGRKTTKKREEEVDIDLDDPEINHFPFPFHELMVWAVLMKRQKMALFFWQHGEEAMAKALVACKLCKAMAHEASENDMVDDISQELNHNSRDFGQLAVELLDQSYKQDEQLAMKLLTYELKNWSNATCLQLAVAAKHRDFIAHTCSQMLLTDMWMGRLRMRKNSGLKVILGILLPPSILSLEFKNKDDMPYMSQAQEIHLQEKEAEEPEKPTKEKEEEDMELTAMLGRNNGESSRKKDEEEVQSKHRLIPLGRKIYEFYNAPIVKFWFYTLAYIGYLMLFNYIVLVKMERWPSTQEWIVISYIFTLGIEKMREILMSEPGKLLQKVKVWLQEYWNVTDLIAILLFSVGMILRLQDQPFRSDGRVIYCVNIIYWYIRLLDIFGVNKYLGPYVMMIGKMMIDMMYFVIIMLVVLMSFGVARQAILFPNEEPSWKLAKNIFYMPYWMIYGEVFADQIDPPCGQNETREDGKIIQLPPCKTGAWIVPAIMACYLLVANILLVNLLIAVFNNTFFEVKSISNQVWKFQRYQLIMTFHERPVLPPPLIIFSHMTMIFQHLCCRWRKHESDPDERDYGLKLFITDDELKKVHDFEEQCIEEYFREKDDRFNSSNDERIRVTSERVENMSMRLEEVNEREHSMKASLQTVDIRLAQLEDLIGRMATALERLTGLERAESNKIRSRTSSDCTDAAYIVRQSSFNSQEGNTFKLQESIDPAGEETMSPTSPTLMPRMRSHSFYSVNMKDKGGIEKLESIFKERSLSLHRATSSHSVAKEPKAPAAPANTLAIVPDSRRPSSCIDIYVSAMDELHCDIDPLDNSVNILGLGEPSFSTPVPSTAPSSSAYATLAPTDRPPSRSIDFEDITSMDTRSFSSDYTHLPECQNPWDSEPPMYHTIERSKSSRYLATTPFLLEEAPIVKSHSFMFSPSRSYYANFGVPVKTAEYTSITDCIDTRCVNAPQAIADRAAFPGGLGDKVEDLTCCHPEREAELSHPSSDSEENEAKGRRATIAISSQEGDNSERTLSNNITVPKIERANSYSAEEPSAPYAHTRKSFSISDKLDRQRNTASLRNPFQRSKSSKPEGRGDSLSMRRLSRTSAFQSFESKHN

Regarding `O=C1C[C@@H](c2ccc(O)cc2)Oc2cc(O)ccc21` [Liquiritigenin], the “mechanical and cold hyperalgesia” value in the assay with rat pain model was “decrease mechanical and cold hyperalgesia”.

For the molecule pregnenolone sulfate, the “activator of TRPM3” value on TRPM3 is “potent known activator”. The evoked pain entry in assay [1] was “evoked pain in wild type mice but not in knock-out TRPM3 mice”.

Turning to `Cc1oc2ccc(OCC3CC3)cc2c1C(=O)NC(CO)C(N)C(F)(F)F` (single isomer, unassigned) [Cpd 056 - En3, N-[(2)-3-amino-4,4,4-trifluoro-1-hydroxybutan-2-yl]-5-(cyclopropylmethoxy)-2-methyl-1-benzofuran-3-carboxamide], the concentration for half-maximal inhibition (IC50) (in general, the concentration at which inhibition is half-maximal) in assay [2] was below 1000 nM.

As to `Cc1oc2ccc(OC[C@H]3C[C@@H](C)C3)cc2c1C(=O)NC(C)(CO)C(N)=O` (single isomer, unassigned) [Cpd 058 - En1, Cis-3-hydroxy-2-methyl-2-({2-methyl-5-[(3-methylcyclobutyl)methoxy]-1-benzofuran-3-yl}formamido)propenamide], the IC50 in assay [2] was below 1000 nM.

Molecule `Cc1oc2cc(F)c(OCC3CC3)cc2c1C(=O)NC(C)(CO)C(N)=O` (single isomer, unassigned) [Cpd 045 - En2, 2-{[5-(cyclopropylmethoxy)-6-fluoro-2-methyl-1-benzofuran-3-yl]formamido}-3-hydroxy-2-methylpropanamide] returned a 50% inhibitory concentration (IC50) in assay [2] below 1000 nM.

As for `Cc1oc2ccc(OCC3CC(F)(F)C3)cc2c1C(=O)NC(C)(CO)C(N)=O` (single isomer, unassigned) [Cpd 054 - En1, 2-({5-[(3,3-difluorocyclobutyl)methoxy]-2-methyl-1-benzofuran-3-yl}formamido)-3-hydroxy-2-methylpropanamide], the concentration for half-maximal inhibition (IC50) in assay [2] lay in the range of 1000 to 20000 nM.

Take `Cc1oc2ccc(OCC3(C(F)F)CC3)cc2c1C(=O)NC1(C(N)=O)CCOC1` (single isomer, unassigned) [Cpd 036 - En2, N-(3-carbamoyloxolan-3-yl)-5-{[1-(difluoromethyl)cyclopropyl]methoxy}-2-methyl-1-benzofuran-3-carboxamide]: the IC50 in assay [2] is below 1000 nM.

`Cc1oc2ccc(OCC3(C(F)(F)F)CC3)cc2c1C(=O)NC1(C)CCCNC1=O` (single isomer, unassigned) [Cpd 061 - En2, 2-methyl-N-(3-methyl-2-oxopiperidin-3-yl)-5-{[1-(trifluoromethyl)cyclopropyl]methoxy}-1-benzofuran-3-carboxamide] had an IC50 in assay [2] of 1000 to 20000 nM.

In assay [2], `Cc1oc2ccc(OCC3CCCC3)cc2c1C(=O)NC(C)(CO)C(N)=O` (single isomer, unassigned) [Cpd 062 - En1, 2-{[5-(cyclopentylmethoxy)-2-methyl-1-benzofuran-3-yl]formamido}-3-hydroxy-2-methylpropanamide] returned an IC50 below 1000 nM.

`Cc1oc2ccc(OCC3CC3)cc2c1C(=O)NC1CCN(C)CC1` [Cpd 021, 5-(cyclopropylmethoxy)-2-methyl-N-(1-methylpiperidin-4-yl)-1-benzofuran-3-carboxamide] yielded a concentration for half-maximal inhibition (IC50) in assay [2] of 1000 to 20000 nM.

In the case of `Cc1oc2ccc(OCC3CC3)cc2c1C(=O)N[C@@H](C)C(N)=O` [Cpd 010, (2S)-2-{[5-(cyclopropylmethoxy)-2-methyl-1-benzofuran-3-yl]formamido}propanamide], the half-maximal inhibitory concentration (IC50) in assay [2] is below 1000 nM.

`Cc1oc2ccc(OCC3CCC3)cc2c1C(=O)NC1CCNCC1(F)F` (single isomer, unassigned) [Cpd 019 - En2, 5-(cyclobutylmethoxy)-N-(3,3-difluoropiperidin-4-yl)-2-methyl-1-benzofuran-3-carboxamide] displayed an IC50 in assay [2] below 1000 nM.

On to `Cc1oc2ccc(OCC3CCC3)cc2c1C(=O)NC(C)(CO)C(N)=O` (single isomer, unassigned) [Cpd 053 - En1, 2-{[5-(cyclobutylmethoxy)-2-methyl-1-benzofuran-3-yl]formamido}-3-hydroxy-2-methylpropanamide], for which the half-maximal inhibitory concentration (IC50) in assay [2] is below 1000 nM.

As for `Cc1oc2cc(F)c(OCC3CC3)cc2c1C(=O)NC(C)(CO)C(N)=O` (single isomer, unassigned) [Cpd 045 - En1, 2-{[5-(cyclopropylmethoxy)-6-fluoro-2-methyl-1-benzofuran-3-yl]formamido}-3-hydroxy-2-methylpropanamide], in assay [2], the IC50 was below 1000 nM.

In turn, `Cc1oc2ccc(OCC(F)F)cc2c1C(=O)NC(C)(CO)C(N)=O` (single isomer, unassigned) [Cpd 041 - En2, 2-{[5-(2,2-difluoroethoxy)-2-methyl-1-benzofuran-3-yl]formamido}-3-hydroxy-2-methylpropanamide] gave an IC50 in assay [2] of 1000 to 20000 nM.

`Cc1oc2ccc(OCC34CC(C)(C3)C4)cc2c1C(=O)NC(C)(CO)C(N)=O` (single isomer, unassigned) [Cpd 052 - En1, 3-hydroxy-2-methyl-2-{[2-methyl-5-({3-methylbicyclo[1.1.1]pentan-1-yl}methoxy)-1-benzofuran-3-yl]formamido}propenamide] gave a concentration for half-maximal inhibition (IC50) in assay [2] below 1000 nM.

The molecule `Cc1oc2ccc(OCC3(C(F)(F)F)CC3)cc2c1C(=O)NC(C)(CO)C(N)=O` (single isomer, unassigned) [Cpd 048 - En1, 3-hydroxy-2-methyl-2-[(2-methyl-5-{[1-(trifluoromethyl)cyclopropyl]methoxy}-1-benzofuran-3-yl)formamido]propanamide] gave an IC50 in assay [2] below 1000 nM.

In assay [2], `Cc1oc2ccc(OCC(F)F)cc2c1C(=O)NC1(C(N)=O)CCOC1` (single isomer, unassigned) [Cpd 044 - En1, N-(3-carbamoyloxolan-3-yl)-5-(2,2-difluoroethoxy)-2-methyl-1-benzofuran-3-carboxamide] returned an IC50 of 1000 to 20000 nM.

On to `Cc1oc2ccc(OCC3CC3(C)C)cc2c1C(=O)NC1CCNCC1(F)F` (single isomer, unassigned) [Cpd 033-En2, N-(3,3-difluoropiperidin-4-yl)-5-[(2,2-dimethylcyclopropyl)methoxy]-2-methyl-1-benzofuran-3-carboxamide], for which the 50% inhibitory concentration (IC50) in assay [2] fell in the range of 1000 to 20000 nM.

Molecule `Cc1oc2ccc(OCC3CC3)cc2c1C(=O)NC(CO)C(N)C(F)(F)F` (single isomer, unassigned) [Cpd 056 - En1, N-[(2)-3-amino-4,4,4-trifluoro-1-hydroxybutan-2-yl]-5-(cyclopropylmethoxy)-2-methyl-1-benzofuran-3-carboxamide] registered an IC50 in assay [2] of 1000 to 20000 nM.

Consider `Cc1oc2ccc(OCC3CC3(F)F)cc2c1C(=O)NC1CCNCC1(F)F` (single isomer, unassigned) [Cpd 031 - En3, 5-[(2,2-difluorocyclopropyl)methoxy]-N-(3,3-difluoropiperidin-4-yl)-2-methyl-1-benzofuran-3-carboxamide], for which the IC50 in assay [2] was in the range of 1000 to 20000 nM.

The molecule `Cc1oc2ccc(OCC3CCC3)cc2c1C(=O)N[C@@H](C)C(N)=O` [Cpd 007, (2S)-2-{[5-(cyclobutylmethoxy)-2-methyl-1-benzofuran-3-yl]formamido}propanamide] had an IC50 in assay [2] below 1000 nM.

Molecule `COCC(C)(CO)NC(=O)c1c(C)oc2ccc(OCC3(C(F)(F)F)CC3)cc12` (single isomer, unassigned) [Cpd 060 - En2, N-(1-hydroxy-3-methoxy-2-methylpropan-2-yl)-2-methyl-5-{[1-(trifluoromethyl)cyclopropyl]methoxy}-1-benzofuran-3-carboxamide] came in with a 50% inhibitory concentration (IC50) in assay [2] below 1000 nM.
